Test results taken from patent US11884675B2, “Heterocyclic compounds as triggering receptor expressed on myeloid cells 2 agonists and methods of use” (AMGEN INC., priority 2020, dated 2024).

Target: hTREM2 (Homo sapiens, UniProt Q9NZC2)
Assay: TREM2 activity by cellular Syk phosphorylation (AlphaScreen/AlphaLISA) in TREM2/DAP12-HEK cells, used for Examples 1-305
Assay type: cell-based
Parameters: expressed in transfected cells
Settings: HEK293 Cells
From the text: In vitro Measurement of Triggering Receptor Expressed on Myeloid Cells 2 activity using cellular phosphorylation of Spleen Tyrosine Kinase (“Syk”) Assays used for Examples 1-305
Pharmacological measurements of TREM2 signaling through DAP12 were made with TREM2 and DAP12 overexpressing HEK293 cells stable cell lines that had been single-cell cloned (“TREM2/DAP12-HEK”). The readout of the TREM2 signaling utilized Perkin Elmer AlphaScreen/AlphaLISA technology monitoring the phosphorylation levels of the Syk kinase. TREM2/DAP12-HEK cell lines were cultured in DMEM-F12 (Corning 10-092-CM) supplemented with 1X Penicillin/Streptomycin (Corning 30-002-CI), 1X GlutaMAX (Gibco 35050-061), and 10% Fetal Bovine Serum (Life Technologies 10099) referred to as “HEK Culture Medium”. Suspensions of TREM2/DAP12-HEK cells were prepared in HEK Culture Medium and dispensed into 384-well poly-D-lysine coated microplates (Corning 354661) at a density of 20,000 cells/well using a Multidrop Combi peristaltic microplate dispenser (Thermo), 25 μL volume of cell suspension/well. Plates containing cells were then incubated for 20 hours in a humidified cell culture incubator at 37° C. with 5% CO2 (Thermo). After incubation, culture medium was removed from all wells of each microplate and replaced with 20 μL of “Assay Buffer” comprised of DMEM-F12 (Corning 10-092-CM) supplemented with 1X Penicillin/Streptomycin (Corning 30-002-CI) and 0.1% Pluronic F-68 Polyol (MP Biomedical 092750049) using a Bravo 384-well pipette-based liquid handling system (Agilent). Assay Buffer contained diluted test articles (in 1% final DMSO concentration for compounds) or 100 nM anti-human/mouse TREM2 antibody (R&D Systems MAB17291) as a positive control, or 100 nM or rat IgG2B isotype Ab as a negative control (R&D Systems MAB0061). The plates were incubated with test articles and controls for 45 minutes at room temperature and then the medium was aspirated/removed from each well of the plates. A Multidrop Combi peristaltic liquid handler (Thermo) was used to dispense 15 μL/well of “Cell Lysis Immunoassay Buffer”. The Cell Lysis Immunoassay Buffer contained M-PER Mammalian Protein Extraction Reagent (Pierce/ThermoFisher 78505), 1X Halt Phosphatase Inhibitor Cocktail (ThermoFisher #78427), 0.1875 nM anti-phospho-Syk (Tyr525/526) (C87C1) rabbit mAb (Cell Signaling Technologies catalog #2710), and 1.5 nM biotinylated Mouse anti-human Syk (4D10) antibody (BD Biosciences, catalog #624008). Plates were incubated for 1 hour at room temperature after the addition of the Cell Lysis Immunoassay Buffer. The Multidrop Combi liquid handler was used to dispense 15 μL of AlphaScreen Acceptor Bead Solution containing 7.5 μg/mL anti-rabbit IgG (Fc specific) AlphaLISA Acceptor Beads (Perkin Elmer AL104R) in 1X Immunoassay buffer (Perkin Elmer AL000F) to each well of the microplates. The plates were incubated for 2 hours at room temperature. Following the incubation with the AlphaLISA Acceptor Bead Solution, a Multidrop Combi liquid handler (Thermo) was used to dispense 15 μL of AlphaScreen Donor Bead Solution containing 30 μg/mL of AlphaScreen Streptavidin Donor beads (Perkin Elmer 6760002B) in 1X Immunoassay buffer (Perkin Elmer AL000F) to each well of the microplates. Microplates were incubated for 2 hours protected from light sources as the AlphaScreen reagents are light sensitive. Once the final incubation was completed, an AlphaScreen signal was acquired from the donor and acceptor beads using an Envision high throughput multi-modal microplate reader (Perkin Elmer) calibrated to the plate type with the AlphaScreen mirror and filter-set in 384-well mode, 680 nanometer excitation wavelength. The total measurement time per well was 550 milliseconds with a 180 millisecond excitation time. […]

Sequence of hTREM2 (Q9NZC2 19-230): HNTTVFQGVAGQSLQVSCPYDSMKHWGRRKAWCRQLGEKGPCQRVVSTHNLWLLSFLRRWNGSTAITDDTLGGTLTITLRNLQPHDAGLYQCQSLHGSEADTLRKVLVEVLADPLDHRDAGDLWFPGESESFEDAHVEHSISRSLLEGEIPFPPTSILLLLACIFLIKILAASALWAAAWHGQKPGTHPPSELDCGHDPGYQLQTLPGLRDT
Sequence of hTREM2 (O43914 22-113 partner): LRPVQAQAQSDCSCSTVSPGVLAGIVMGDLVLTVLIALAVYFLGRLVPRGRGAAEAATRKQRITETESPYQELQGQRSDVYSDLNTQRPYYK

| EC50 [nM] | hTREM2 Emax | Structure (SMILES) |
| --- | --- | --- |
| 50 to 500 | +++ (Emax>150 and ≤250) | Cc1cc([C@@H]2C[C@H](c3cc4nc(C)c(C)nc4c(-c4ccc(Cl)cc4F)n3)CCO2)ccn1 (relative stereo) [Example 217, 5-(4-chloro-2-fluorophenyl)-2,3-dimethyl-7-((2S,4R)-2-(2-methyl-4-pyridinyl)tetrahydro-2H-pyran-4-yl)pyrido [3,4-b]pyrazine] |
| 50 to 500 | ++ (Emax>100 and ≤150) | Cc1cc([C@@H]2CN(c3nc4nc(C)cnc4c([C@H]4C[C@@H](C(F)(F)F)C4)n3)CCO2)cnn1 (single isomer, unassigned) [Example 14] |
| 50 to 500 | ++++ (Emax>250) | Cc1ncc([C@H]2CN(c3nc(-c4ccc(Cl)cc4F)c4nc(C)c(C)nc4n3)CCO2)cn1 (single isomer, unassigned) [Example 24] |
| ≤ 50 | ++++ (Emax>250) | Cc1ncc([C@@H]2CN(c3nc(-c4ccc(Cl)cc4F)c4nc(C)c(C)nc4n3)CCO2)cn1 (single isomer, unassigned) [Example 25] |
| 500 to 3000 | +++ (Emax>150 and ≤250) | Cc1nc2nc(N3CCO[C@@H]([C@@H]4CCOC4)C3)nc(-c3ccc(F)cc3F)c2nc1C (single isomer, unassigned) [Example 34] |
| 50 to 500 | +++ (Emax>150 and ≤250) | Cc1nc2nc(N3CCO[C@H]([C@@H]4CCOC4)C3)nc(-c3ccc(F)cc3F)c2nc1C (single isomer, unassigned) [Example 35] |
| 50 to 500 | +++ (Emax>150 and ≤250) | Cc1nc2nc(N3CCO[C@H]([C@H]4CCOC4)C3)nc(-c3ccc(F)cc3F)c2nc1C (single isomer, unassigned) [Example 36] |
| 500 to 3000 | + (Emax>45 and ≤100) | Cc1nc2nc(N3CCO[C@@H](c4cnn(C)c4)C3)nc(N3CCC[C@@H](F)C3)c2nc1C (single isomer, unassigned) [Example 69] |
| 500 to 3000 | + (Emax>45 and ≤100) | Cc1nc2nc(N3CCO[C@@H](c4cnn(C)c4)C3)nc(N3CCC[C@H](F)C3)c2nc1C (single isomer, unassigned) [Example 70] |
| ≤ 50 | ++++ (Emax>250) | Cc1cc([C@H]2CN(c3nc(-c4ccc(Cl)cc4F)c4ccc(C)nc4n3)CCO2)cnn1 (single isomer, unassigned) [Example 86] |
| 50 to 500 | ++++ (Emax>250) | Cc1cc([C@@H]2CN(c3nc(-c4ccc(Cl)cc4F)c4ccc(C)nc4n3)CCO2)cnn1 (single isomer, unassigned) [Example 87] |
| 500 to 3000 | +++ (Emax>150 and ≤250) | Cc1ccc2c(-c3ccc(Cl)cc3F)nc(N3CCO[C@H](c4cnc(C)nc4)C3)nc2n1 (single isomer, unassigned) [Example 89] |
| 50 to 500 | +++ (Emax>150 and ≤250) | Cc1ccc2c(-c3ccc(Cl)cc3F)nc(N3CCO[C@@H](c4cnc(C)nc4)C3)nc2n1 (single isomer, unassigned) [Example 90] |
| ≤ 50 | +++ (Emax>150 and ≤250) | Cc1cc([C@H]2CN(c3nc(-c4ccc(Cl)cc4F)c4cc(C)c(C)nc4n3)CCO2)cnn1 (single isomer, unassigned) [Example 104] |
| ≤ 50 | ++++ (Emax>250) | Cc1cc([C@@H]2CN(c3nc(-c4ccc(Cl)cc4F)c4cc(C)c(C)nc4n3)CCO2)cnn1 (single isomer, unassigned) [Example 105] |
| 50 to 500 | +++ (Emax>150 and ≤250) | Cc1ncc([C@@H]2CN(c3nc(-c4ccc(Cl)cc4F)c4cc(C)c(C)nc4n3)CCO2)cn1 (single isomer, unassigned) [Example 106] |

| EC50 [nM] | hTREM2 Emax | Structure (SMILES) |
| --- | --- | --- |
| ≤ 50 | +++ (Emax>150 and ≤250) | Cc1ncc([C@H]2CN(c3nc(-c4ccc(Cl)cc4F)c4cc(C)c(C)nc4n3)CCO2)cn1 (single isomer, unassigned) [Example 107] |
| ≤ 50 | +++ (Emax>150 and ≤250) | Cc1cc([C@H]2CN(c3nc4nc(C)c(C)cc4c([C@H]4C[C@H](C(F)(F)F)C4)n3)CCO2)cnn1 (single isomer, unassigned) [Example 114] |
| ≤ 50 | +++ (Emax>150 and ≤250) | Cc1nc2nc(N3CCC(F)(F)[C@@H](c4cnn(C)c4)C3)nc(-c3ccc(Cl)cc3F)c2nc1C (single isomer, unassigned) [Example 123] |
| ≤ 50 | ++++ (Emax>250) | Cc1nc2nc(N3CCC(F)(F)[C@H](c4cnn(C)c4)C3)nc(-c3ccc(Cl)cc3F)c2nc1C (single isomer, unassigned) [Example 124] |
| 50 to 500 | + (Emax>45 and ≤100) | Cc1nc2nc(N3CCO[C@@H](c4cnn(C)c4)C3)nc(C3=CC[C@H](C(F)(F)F)CC3)c2nc1C (single isomer, unassigned) [Example 126] |
| ≤ 50 | ++ (Emax>100 and ≤150) | Cc1nc2nc(N3CCO[C@@H](c4cnn(C)c4)C3)nc(C3=CC[C@@H](C(F)(F)F)CC3)c2nc1C (single isomer, unassigned) [Example 127] |
| ≤ 50 | ++++ (Emax>250) | Cc1cnc2c(-c3ccc(Cl)cc3F)nc([C@H]3CCO[C@@H](c4cnn(C5CC5)c4)C3)nc2n1 (single isomer, unassigned) [Example 170] |
| ≤ 50 | +++ (Emax>150 and ≤250) | Cc1cc([C@H]2C[C@@H](c3nc(-c4ccc(Cl)cc4F)c4ncc(C)nc4n3)CCO2)ccn1 (single isomer, unassigned) [Example 171] |
| 50 to 500 | ++++ (Emax>250) | Cc1cc([C@@H]2C[C@H](c3nc(-c4ccc(Cl)cc4F)c4ncc(C)nc4n3)CCO2)ccn1 (single isomer, unassigned) [Example 172] |
| ≤ 50 | +++ (Emax>150 and ≤250) | Cc1cnc2c(-c3ccc(Cl)cc3F)nc([C@H]3CCO[C@@H](c4cnc(C)nc4)C3)nc2n1 (single isomer, unassigned) [Example 173] |
| 50 to 500 | +++ (Emax>150 and ≤250) | Cc1cnc2c(-c3ccc(Cl)cc3F)nc([C@@H]3CCO[C@H](c4cnc(C)nc4)C3)nc2n1 (single isomer, unassigned) [Example 174] |
| 500 to 3000 | ++ (Emax>100 and ≤150) | Cc1nc2nc([C@@H]3CCO[C@H](c4cnn(C)c4)C3)nc(C3CCC(F)(F)CC3)c2nc1C (single isomer, unassigned) [Example 175] |
| ≤ 50 | +++ (Emax>150 and ≤250) | Cc1nc2nc([C@H]3CCO[C@@H](c4cnn(C)c4)C3)nc(C3CCC(F)(F)CC3)c2nc1C (single isomer, unassigned) [Example 176] |
| 500 to 3000 | +++ (Emax>150 and ≤250) | Cc1nc2nc([C@@H]3CCO[C@H](c4cnn(C)c4)C3)nc(-c3ccc(Cl)cc3F)c2nc1C (single isomer, unassigned) [Example 177] |
| ≤ 50 | ++++ (Emax>250) | Cc1nc2nc([C@H]3CCO[C@@H](c4cnn(C)c4)C3)nc(-c3ccc(Cl)cc3F)c2nc1C (single isomer, unassigned) [Example 178] |

| Structure (SMILES) | EC50 [nM] | hTREM2 Emax |
| --- | --- | --- |
| Cc1nc2nc(N3CCO[C@@H](c4cnn(C)c4)C3)nc(C3CCC(Cl)CC3)c2nc1C (mixture of isomers) [Example 165, 4-(trans-4-chlorocyclohexyl)-6,7-dimethyl-2-((2S)-2-(1-methyl-1H-pyrazol-4-yl)-4-morpholinyl) pteridine] | ≤ 50 | +++ (Emax>150 and ≤250) |
